In brackets after ≈: the same amount, converted by molar mass. Where two headings read alike, the source gives them in different places.
Assays:
Staphylococcus aureus = assay: MIC, microtitration dilution method, S. aur.; format: cell-based
Method: (§1) The compounds of this invention display antibacterial activity when tested by the microtitration dilution method reported by Heifetz et al., Antimicr. Agents & Chemoth., 6. 124 (1974). Minimum inhibitory concentrations (MICs, in μg/ml) for but a few representative compounds according to this invention were determined by the above-mentioned method.

Streptococcus faecalis = assay: MIC, microtitration dilution method, S. faecal.; format: cell-based
Method: as §1

Streptococcus faecium = assay: MIC, microtitration dilution method, S. faeci.; format: cell-based
Method: as §1

Escherichia coli = assay: MIC, microtitration dilution method, E. coli; format: cell-based
Method: as §1

Enterobacter cloacae = assay: MIC, microtitration dilution method, E. clo.; format: cell-based
Pseudomonas aeruginosa = assay: MIC, microtitration dilution method, P. aer.; format: cell-based
Method: as §1

Klebsiella pneumoniae = assay: MIC, K. pneum.; format: cell-based
Method: as §1

Klebsiella oxytoca = assay: MIC, microtitration dilution method, K. oxyto.; format: cell-based; details: Table 2
Method: as §1

[1] = in words; from Tables 2, 3 and 4
physchem = details: water
[2] = Staphylococcus aureus, Table 3, S. aur., read-out: MIC
[3] = Enterococcus faecalis, Table 3, S. faecal., read-out: MIC
[4] = Enterococcus faecium, Table 3, S. faeci., read-out: MIC
[5] = Escherichia coli, Table 3, E. coli, read-out: MIC
[6] = Enterobacter cloacae, Table 3, E. clo., read-out: MIC
[7] = Pseudomonas aeruginosa, Table 3, P. aer., read-out: MIC
[8] = Table 3, K. pneum., read-out: MIC

Structure (SMILES)	MIC (Escherichia coli; [5]) [µg/mL]	MIC (Staphylococcus aureus; Staphylococcus aureus) [µg/mL]	MIC (Streptococcus faecalis; Enterococcus faecalis) [µg/mL]	MIC (Streptococcus faecium; Enterococcus faecium) [µg/mL]	MIC (Escherichia coli; Escherichia coli) [µg/mL]	MIC (Enterobacter cloacae; Enterobacter cloacae) [µg/mL]	MIC (Pseudomonas aeruginosa; Pseudomonas aeruginosa) [µg/mL]	MIC (Klebsiella pneumoniae) [µg/mL]	also measured
CCn1cc(C(=O)O)c(=O)c2cc(F)c(N3CCNCC3)cc21 [Nor., 1-ethyl-6-fluoro-1,4-dihydro-7-(1-piperazinyl)-4-oxo-quinoline-3-carboxylic acid, reference compound]	0.06 (≈ 0.188 µM)	–	–	–	–	–	–	–	MIC (Staphylococcus aureus; [2]): 0.25 µg/mL (≈ 0.783 µM); MIC (Streptococcus faecalis; [3]): 2 µg/mL (≈ 6.26 µM); MIC (Streptococcus faecium; [4]): 8 µg/mL (≈ 25.1 µM); MIC (Enterobacter cloacae; [6]): 0.06 µg/mL (≈ 0.188 µM); MIC (Pseudomonas aeruginosa; [7]): 0.5 µg/mL (≈ 1.57 µM); MIC (Klebsiella pneumoniae; [8]): 0.03 µg/mL (≈ 0.0939 µM)
CC(C)(C)n1cc(C(=O)O)c(=O)c2cc(F)c(N3CC[C@H](N)C3)nc21 [Example 46, 7-[(S)-3-amino-1-pyrrolidinyl]-1-(1,1-dimethylethyl)-6-fluoro-1,4-dihydro-4-oxo-1,8-naphthyridine-3-carboxylic acid]	–	0.008 (≈ 0.023 µM)	0.03 (≈ 0.0861 µM)	0.25 (≈ 0.718 µM)	0.015 (≈ 0.0431 µM)	0.008 (≈ 0.023 µM)	0.06 (≈ 0.172 µM)	0.03 (≈ 0.0861 µM)	–
CC(C)(C)n1cc(C(=O)O)c(=O)c2cc(F)c(N3CC[C@@H](N)C3)nc21 [Example 45, 7-[(R)-3-AMINO-PYRROLIDINYL]-1-(1,1-DIMETHYLETHYL)-1,4-DIHYDRO-6-FLUORO-4-OXO-1,8-NAPHTHYRIDINE-3-CARBOXYLIC ACID, METHANESULFONATE]	–	0.15	0.13	1	0.06	0.06	0.25	0.13	–
CC(C)(C)n1cc(C(=O)O)c(=O)c2cc(F)c(N3CCC(N)C3)nc21 (stereo not shown) [Example 36, 7-(3-AMINO-1-PYRROLIDINYL)-1-(1,1-DIMETHYLETHYL)-1,4-DIHYDRO-6-FLUORO-4-OXO-1,8-NAPHTHYRIDINE-3-CARBOXYLIC ACID]	–	0.015 (≈ 0.0431 µM)	0.25 (≈ 0.718 µM)	1 (≈ 2.87 µM)	0.13 (≈ 0.373 µM)	0.06 (≈ 0.172 µM)	0.25 (≈ 0.718 µM)	0.13 (≈ 0.373 µM)	–
CS(=O)(=O)O.C[C@@H]1CN(c2nc3c(cc2F)c(=O)c(C(=O)O)cn3C(C)(C)C)C[C@H]1N (relative stereo) [Example 48, 7-(trans-3-amino-4-methylpyrrolidin-1-yl)-1-(1,1-dimethylethyl)-1,4-dihydro-6-fluoro-4-oxo-1,8-naphthyridine-3-carboxylic acid (methanesulfonate)]	–	0.008	0.06	0.5	0.015	0.015	0.25	0.06	–
CC(C)(C)n1cc(C(=O)O)c(=O)c2cc(F)c(N3C[C@@H]4CC[C@H]3CN4)nc21 [Example 23, 7-(1S,4S-2,5-DIAZABICYCLO[2.2.2]OCTAN-2-YL)-1-(1,1-DIMETHYLETHYL)-1,4-DIHYDRO-6-FLUORO-4-OXO-1,8-NAPHTHYRIDINE-3-CARBOXYLIC ACID]	–	–	–	–	–	–	–	–	MIC (Staphylococcus aureus; Table 2, S. aur.): 30 µg/mL (≈ 80.1 µM); MIC (Streptococcus faecalis; Table 2, S. faecal.): 500 µg/mL (≈ 1340 µM); MIC (Streptococcus faecium; Table 2, S. faeci.): 2000 µg/mL (≈ 5340 µM); MIC (Escherichia coli; Table 2, E. coli): 130 µg/mL (≈ 347 µM); MIC (Klebsiella oxytoca): 500 µg/mL (≈ 1340 µM); MIC (Enterobacter cloacae; Table 2, E. clo.): 60 µg/mL (≈ 160 µM); MIC (Pseudomonas aeruginosa; Table 2, P. aer.): 1000 µg/mL (≈ 2670 µM)
CC(C)(C)n1cc(C(=O)O)c(=O)c2cc(F)c(N3C[C@H]4C[C@@H]3CN4)nc21 [Example 30]	0.06 (≈ 0.166 µM)	–	–	–	–	–	–	–	MIC (Staphylococcus aureus; [2]): 0.06 µg/mL (≈ 0.166 µM); MIC (Streptococcus faecalis; [3]): 0.25 µg/mL (≈ 0.694 µM); MIC (Streptococcus faecium; [4]): 2 µg/mL (≈ 5.55 µM); MIC (Enterobacter cloacae; [6]): 0.03 µg/mL (≈ 0.0832 µM); MIC (Pseudomonas aeruginosa; [7]): 0.13 µg/mL (≈ 0.361 µM); MIC (Klebsiella pneumoniae; [8]): 0.06 µg/mL (≈ 0.166 µM); combination of anti-bacterial, toxicity, and water-solubility properties [1]: highly advantageous combination of the above mentioned properties; solubility (physchem): 80 µg/mL (≈ 222 µM)
O=C(O)c1cn(C2CC2)c2cc(N3CCNCC3)c(F)cc2c1=O [Cip., 1-cyclopropyl-6-fluoro-1,4-dihydro-7-(1-piperazinyl)-4-oxo-quinoline-3-carboxylic acid, reference compound]	0.015 (≈ 0.0453 µM)	0.13 (≈ 0.392 µM)	–	8 (≈ 24.1 µM)	–	–	0.13 (≈ 0.392 µM)	0.03 (≈ 0.0905 µM)	–
C[C@H]1CN(c2nc3c(cc2F)c(=O)c(C(=O)O)cn3C(C)(C)C)C[C@H]1N (relative stereo) [Example 47, 7-(cis-3-amino-4-methyl-pyrrolidin-1-yl)-1-(1,1-dimethylethyl)-1,4-dihydro-6-fluoro-4-oxo-1,8-naphthyridine-3-carboxylic acid]	–	0.015 (≈ 0.0414 µM)	0.13 (≈ 0.359 µM)	1 (≈ 2.76 µM)	0.25 (≈ 0.69 µM)	0.13 (≈ 0.359 µM)	0.5 (≈ 1.38 µM)	0.03 (≈ 0.0828 µM)	–
CC1CN(c2nc3c(cc2F)c(=O)c(C(=O)O)cn3C(C)(C)C)CC1N (mixture of isomers) [Example 42]	–	0.03	0.25	1	0.008	0.015	0.25	0.06	–

Source: patent US4954507A, “1-tertiary-alkyl-substituted naphthyridine carboxylic acid antibacterial agents” (priority 1988, dated 1990)
